Test results from patent publication US20060121449A1, “Method for selection of compounds which inhibit clonal cell growth and use thereof” (priority 2002, published 2006).
Entries after “also recorded” stand apart in the source; their conditions may differ.

Columns and labels:
[1] = test system: spleen antibody producing cells against sheep red cells; details: from the literature; cited from earlier work
[2] = test system: polyoma virus transformed BHK21/c13 cells, clone S100T1; assay: Clonal test: clonal growth of S100T1 cells in soft agar (Exp 2, 4, 6, 15, 16); format: cell-based, hamster; details: for Clonal growth: Exp 15, plate read the 5th day; for Significance of results: Exp 16, read after 14 days, ca. 223 μM; for Colony inhibiting activity for dosage within a range that might be therapeutic: Exp 16, about 40000 S100T1 cells/well; for Effect on clonal growth at 500 μM: DMSO toxicity might interfere
Description: The clonal test comprises: • 1. seeding cells in soft agar optionally containing growth factor(s); • 2. handling or incubation of special gels (e.g. ultra low gelling temperature agarose), including the production of cell density gradients. • 3. incubating in suitable temperature and atmosphere and; • 4. regular monitoring of the cells and development of clones.
The clonal test can be directed in fluid medium or in soft agar medium. Usually only transformed cells will form clones in soft agar.
After seeding and mixing, the tubes were placed in the refrigerator for about 1 hour to consolidate the ultra low melting point agarose.
120000 S100T1 cells of a polyoma virus transformed BHK21/c13 cell line, were seeded in 1 ml soft agar medium in Falcon 50 ml centrifuge tubes. […] On the top of the agar layer 0.5 ml fluid medium was added.
Agar cultures were prepared in wells of 24 well Falcon tissue culture plate. […] Insulin (Actrapid, Novo) was added in a concentration of 0.1 i.u./ml to BHK21/c13 cell cultures only.
The cells were all single cells. Each well received 32000 cells (Table 4). Plate: 24 wells Falcon tissue culture plate received a bottom layer composed as in Table 3:
The cells were all single cells.
The wells contained two layers, each of 0.3 ml agar.
The agarose was added to double distilled water and solved by heating in micro oven.

[3] = test system: polyoma virus transformed BHK21/c13 cells, line S100T1; assay: Collocation inhibition test: clonal growth in sparsely and densely seeded areas of a cell density gradient of S100T1 cells in soft agar (Exp 13, 17, 19-26); details: for Clonal growth, H: high density area of cell gradient, High / Clonal growth, L: low density area of cell gradient, High / Clonal growth, L low density area of cell gradient, High: high concentration; for Compounds with significant inhibition of clonal growth of sparsely seeded cells: Exp 24, 180000 S100T1 cells/well; for Clonal growth, L low density area of cell gradient, High / Clonal growth, L low density area of cell gradient, Low / Effect on cell cloning in soft agar: preliminary results; for Clonal growth, L low density area of cell gradient, High / Clonal growth, L low density area of cell gradient, Low: Exp 13-18, 21-26; for Effect on cell cloning in soft agar: in words;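 on Clonal growth, L low density area of cell gradient, High: grades rise with clonal growth and minus or plus-minus means none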;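 on Clonal growth, L low density area of cell gradient, Low: grades rise with clonal growth and minus or plus-minus means none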;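 on all read-outs here: soft agar cultures in 24-well plates with a cell density gradient in the top layer, compounds applied from DMSO stocks, clonal growth scored in sparse versus dense areas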
[4] = test system: BHK21/c13 (normal baby hamster kidney cells); details: Tjøtta E. (1968); cited from earlier work
[5] = Exp 15, 5th day, Low conc., μM in wells: No 1 (4-OH—OPB) 2, 2 (Colchicine) 0.01, 3 (Diphenylhydantoin) 10, 4 (Podophyllotoxin) 0.03, 5 (Piroxicam) 5, 6 (Diclofenak) 10, 7 (Ibuprofen) 100, 8 (Naproxen) 50, 9 (Acetylsalicylic acid) 100, ” = as line above
[6] = High conc., μM in wells: No 1 (4-OH—OPB) 20, 2 (Colchicine) 0.1, 3 (Diphenylhydantoin) 100, 4 (Podophyllotoxin) 0.3, 5 (Piroxicam) 50, 6 (Diclofenak) 100, 7 (Ibuprofen) 1000, 8 (Naproxen) 500, 9 (Acetylsalicylic acid) 1000
[7] = 4-OH-OPB analogues, S100T1 in soft agar
[8] = 4-OH-OPB analogues, S100T1 in soft agar, medium concentration
[9] = Experiment 24, H: area with high cell density, High concentration, 48 hours
[10] = Experiment 24, H: area with high cell density, Low concentration, 48 hours
[11] = Experiment 24, H: area with high cell density, Medium concentration, 48 hours
[12] = Experiment 24, L: area with low cell density, High concentration, 48 hours
[13] = Experiment 24, L: area with low cell density, Low concentration, 48 hours
[14] = Experiment 24, L: area with low cell density, Medium concentration, 48 hours
[15] = Summary Table 3 of analogue tests (experiments 22-25), H (high cell density), High concentration
[16] = Summary Table 3 of analogue tests (experiments 22-25), H (high cell density), Low concentration
[17] = Summary Table 3 of analogue tests (experiments 22-25), H (high cell density), Medium concentration
[18] = Summary Table 3 of analogue tests (experiments 22-25), L (low cell density), High concentration
[19] = Summary Table 3 of analogue tests (experiments 22-25), L (low cell density), Low concentration
[20] = Summary Table 3 of analogue tests (experiments 22-25), L (low cell density), Medium concentration
[21] = Exp 15, 32000 S100T1 cells/well

CN(C)N [1-1-dimethylhydrazine]
Effect on development of plaques in Jerne's test [1]: enhances development of plaques

Cc1ccc(C2(O)C(=O)N(c3ccccc3)N(c3ccccc3)C2=O)cc1 [#8, 1,2-diphenyl-4-hydroxy-4-(4-methylphenyl)-3,5-pyrazolidinedione]
Significance [2, 5]: ”
Clonal growth [2, 6]: −
Clonal growth, H: high density area of cell gradient, High [3, 7]: ++
Clonal growth, L: low density area of cell gradient, High [3, 7]: +
Clonal growth, H: high density area of cell gradient, Medium [3, 8]: ++
Compounds with significant inhibition of clonal growth of sparsely seeded cells [3]: None
Clonal growth [3, 9]: +(+)
Clonal growth [3, 10]: ++
Clonal growth [3, 11]: ++
Clonal growth [3, 12]: +(+)
Clonal growth [3, 13]: +
Clonal growth [3, 14]: +(+)
Clonal growth [3, 15]: ++
Clonal growth [3, 16]: +(+)
Clonal growth [3, 17]: ++
Clonal growth [3, 18]: +
Clonal growth [3, 19]: +(+)
Clonal growth [3, 20]: +(+)

O=C1N(c2ccccc2)N(c2ccccc2)C(=O)C1(O)Cc1ccccc1 [#9, 4-benzyl-1,2-diphenyl-4-hydroxy-3,5-pyrazolidinedione]
Significance [2, 5]: ”
Clonal growth [2, 6]: −
Clonal growth ([2]; Low conc., μM in wells: No 1 (4-OH—OPB) 2, 2 (Colchicine) 0.01, 3 (Diphenylhydantoin) 10, 4 (Podophyllotoxin) 0.03, 5 (Piroxicam) 5, 6 (Diclofenak) 10, 7 (Ibuprofen) 100, 8 (Naproxen) 50, 9 (Acetylsalicylic acid) 100): +
Clonal growth, H: high density area of cell gradient, High [3, 7]: ++
Clonal growth, L: low density area of cell gradient, High [3, 7]: +
Clonal growth, H: high density area of cell gradient, Low ([3]; 4-OH-OPB analogues, S100T1 in soft agar, low concentration): ++(+)
Clonal growth, H: high density area of cell gradient, Medium [3, 8]: +++
Clonal growth, L: low density area of cell gradient, Medium [3, 8]: +
Compounds with significant inhibition of clonal growth of sparsely seeded cells [3]: None
Clonal growth [3, 9]: ++
Clonal growth [3, 10]: ++(+)
Clonal growth [3, 11]: +++
Clonal growth [3, 12]: +
Clonal growth [3, 13]: +(+)
Clonal growth [3, 14]: +
Clonal growth [3, 15]: ++
Clonal growth [3, 16]: ++(+)
Clonal growth [3, 17]: +++
Clonal growth [3, 18]: +
Clonal growth [3, 19]: +(+)
Clonal growth [3, 20]: +

CC(=O)Oc1ccccc1C(=O)O [Acetylsalicylic acid]
Effect on clonal growth at 100 μM [2, 21]: possibly inhibited significantly, but not completely
Effect on clonal growth at 1000 μM ([2]; Exp 15, 32000 S100T1 cells/well, 30 μl DMSO in the well might be toxic): the inhibition is complete
Significance of results ([2]; Acetylsalicylic acid No 10): probable
Colony inhibiting activity for dosage within a range that might be therapeutic [2]: probably had a colony inhibiting activity
Significance ([2]; Exp 16 day 14, Acetylsalicylic acid No 10, 215 μM): probable
Growth ([2]; Exp 16 day 14, Acetylsalicylic acid No 10, 215 μM in wells): (+))
Growth ([2]; Exp 16 day 14, Acetylsalicylic acid No 10, 464 μM in wells): (+))
Significance ([2]; Exp 16 day 14, Acetylsalicylic acid No 10, 464 μM, doubtful because the solvent DMSO might be inhibiting): doubtful*
Significance ([2]; Exp 16 day 21, Acetylsalicylic acid No 10, 215 μM): possible
Growth ([2]; Exp 16 day 21, Acetylsalicylic acid No 10, 215 μM in wells): (+)
Growth ([2]; Exp 16 day 21, Acetylsalicylic acid No 10, 464 μM in wells): (+))
Significance ([2]; Exp 16 day 21, Acetylsalicylic acid No 10, 464 μM, *see conclusion (DMSO)): doubtful*
Anti-clonal effect, summary of Exp 15 ([2]; S100T1 in soft agar): showed possible clonal inhibition at low
Clonal growth, L low density area of cell gradient, High [3]: ((+))
Clonal growth, L low density area of cell gradient, Low ([3]; low concentration): (+)
Effect on cell cloning in soft agar [3]: Possible inhibition of clonal growth

O=C(O)Cc1ccccc1Nc1c(Cl)cccc1Cl [Diclofenac, reference compound]
Effect on clonal growth at 10 μM [2, 21]: probable significant increase in clonal growth
Effect on clonal growth at 10-100 μM [2, 21]: no significant inhibition
Anti-clonal effect, summary of Exp 15 ([2]; S100T1 in soft agar): increased clonal growth at low concentration
Clonal growth, L low density area of cell gradient, High [3]: ++
Clonal growth, L low density area of cell gradient, Low ([3]; low concentration): ++(+)
Effect on cell cloning in soft agar [3]: A possible increase of clonal growth

COc1ccc2cc([C@H](C)C(=O)O)ccc2c1 [Naproxen]
Effect on clonal growth at 500 μM [2, 21]: inhibited significantly
Effect on clonal growth at 500 μM ([2]; Exp 15, 32000 S100T1 cells/well, listed as Naproxea): probably inhibited significantly
Significance of results ([2]; Naproxen No 9): possible
Colony inhibiting activity for dosage within a range that might be therapeutic [2]: probably had a colony inhibiting activity; also recorded: the same activity possibly existed
Significance ([2]; Exp 16 day 14, Naproxen No 9, 108 μM): doubtful
Growth ([2]; Exp 16 day 14, Naproxen No 9, 108 μM in wells): (+
Significance ([2]; Exp 16 day 14, Naproxen No 9, 232 μM): possible*
Growth ([2]; Exp 16 day 14, Naproxen No 9, 232 μM in wells): (+)
Significance ([2]; Exp 16 day 21, Naproxen No 9, 108 μM): doubtful
Growth ([2]; Exp 16 day 21, Naproxen No 9, 108 μM in wells): (+
Significance ([2]; Exp 16 day 21, Naproxen No 9, 232 μM): possible*
Growth ([2]; Exp 16 day 21, Naproxen No 9, 232 μM in wells): (+)
Anti-clonal effect, summary of Exp 15 ([2]; S100T1 in soft agar): showed possible clonal inhibition at low
Anti-clonal effect, summary of Exp 16 ([2]; S100T1 in soft agar): Ibuprofen and Naproxen possibly inhibited and Acetyl
Effect on cell cloning in soft agar [3]: Clonal inhibition possible

CN1C(C(=O)Nc2ccccn2)=C(O)c2ccccc2S1(=O)=O [Piroxicam]
Effect on clonal growth at 50 μM [2, 21]: inhibited doubtfully; also recorded: possibly inhibited significantly
Effect on clonal growth at 5-50 μM [2, 21]: did not inhibit clonal growth significantly
Anti-clonal effect, summary of Exp 15 ([2]; S100T1 in soft agar): Piroxicam inhibited less, but similarly
Clonal growth, L low density area of cell gradient, High [3]: +
Clonal growth, L low density area of cell gradient, Low ([3]; low concentration): ++
Effect on cell cloning in soft agar [3]: Clonal inhibition possible

Insulin: Insulin Actrapid (Novo), 0.1 i.u./ml, growth factor
Stimulation of clonal growth in soft agar culture [4]: stimulate clonal growth of normal, but not transformed cells
